Our source for the Activity, fold change (FC) and TIME values is ChEMBL document CHEMBL2424513, “Design, synthesis and biological studies of survivin dimerization modulators that prolong mitotic cycle” (Bioorg Med Chem Lett, 2013).

In experiment [1] the target is Baculoviral IAP repeat-containing protein 5 (Homo sapiens) (UniProt O15392). Description: Modulation of GFP-tagged survivin dimerization in human PC3 cells assessed as distorted, diffused or decondensed CPC organization at 50 to 100 nM after 72 hrs by real-time video microscopy relative to control. The experiment is classed as cell-based. The settings on record: PC-3.

Experiment [2] shares this target. In words: Modulation of GFP-tagged survivin dimerization in human PC3 cells assessed as defect in mitotic progression at 10 nM after 72 hrs by real-time video microscopy. The experiment is classed as cell-based. The settings on record: PC-3.
For experiment [3] the target is unchanged. Description: Modulation of GFP-tagged survivin dimerization in HUVEC assessed as distorted, diffused or decondensed CPC organization at 10 nM after 48 hrs by real-time video microscopy relative to control.
Experiment [4] has the same target. Description: Modulation of GFP-tagged survivin dimerization in HUVEC assessed as defect in mitotic progression at 50 to 100 nM after 48 hrs by real-time video microscopy relative to control.
The target is the same in experiment [5]. In words: Modulation of GFP-tagged survivin dimerization in human PC3 cells assessed as distorted, diffused or decondensed CPC organization at 10 nM after 72 hrs by real-time video microscopy relative to control. It is filed as cell-based. The settings on record: PC-3.
Experiment [6] has the same target. Description: Modulation of GFP-tagged survivin dimerization in HUVEC assessed as time length of mitosis at 100 nM after 48 hrs by real-time video microscopy (reference value: 51.2 +/- 2.3 mins).
Experiment [7] has the same target. In words: Modulation of GFP-tagged survivin dimerization in HUVEC assessed as distorted, diffused or decondensed CPC organization at 50 to 100 nM after 48 hrs by real-time video microscopy relative to control.
Experiment [8] has the same target. In words: Modulation of GFP-tagged survivin dimerization in human PC3 cells assessed as defect in mitotic progression at 50 to 100 nM after 72 hrs by real-time video microscopy. The experiment is classed as cell-based. The settings on record: PC-3.
The target is the same in experiment [9]. Description: Modulation of GFP-tagged survivin dimerization in HUVEC assessed as reduction in cell number after 48 hrs by real-time video microscopy.
For experiment [10] the target is unchanged. Description: Modulation of GFP-tagged survivin dimerization in HUVEC assessed as reduction in cell number at 50 to 100 nM by real-time video microscopy. The settings on record: TDE = time-dependent effect.
Experiment [11] has the same target. In words: Modulation of GFP-tagged survivin dimerization in HUVEC assessed as defect in mitotic progression at 10 nM after 48 hrs by real-time video microscopy.
The target is the same in experiment [12]. In words: Modulation of GFP-tagged survivin dimerization in human PC3 cells assessed as reduction in cell number at 50 to 100 nM after 72 hrs by real-time video microscopy relative to control. The experiment is classed as cell-based. The settings on record: PC-3.
The target is the same in experiment [13]. Description: Modulation of GFP-tagged survivin dimerization in HUVEC assessed as reduction in cell number at 50 to 100 nM after 48 hrs by real-time video microscopy relative to control.

Structures are written as SMILES. Calls of active or inactive are those of the source. No cut-off for these calls is given here.

Baculoviral IAP repeat-containing protein 5 (Homo sapiens), sequence (O15392 whole entry, the tested form may be a part): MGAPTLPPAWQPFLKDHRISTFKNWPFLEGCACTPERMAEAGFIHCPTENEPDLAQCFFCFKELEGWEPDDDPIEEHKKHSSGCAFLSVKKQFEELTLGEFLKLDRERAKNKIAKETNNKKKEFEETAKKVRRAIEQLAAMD

Take `N#Cc1c(-c2cc(OCc3ccccc3)cc(OCc3ccccc3)c2)cc(-c2cc(Cl)ccc2O)[nH]c1=O`: the result in experiment [1] and in [7] was Active. The outcome in experiment [2], in [3], in experiment [4], in experiment [5], in experiment [8] and in [11] was inactive. In addition, the fold change (FC) in experiment [4] and in experiment [8] was 2 in each case. The TIME in experiment [6] amounted to 2.57 h. Moreover, the Activity result in [9] was “Dose-dependent effect”; in experiment [10], “tde”.
As for `N#Cc1c(-c2cccc(OCc3ccccc3)c2)cc(-c2cc(Cl)cc(I)c2O)[nH]c1=O`, the outcome in [1], in experiment [4], in experiment [7] and in [8] was Active. The outcome in [2], in [3], in experiment [5] and in [11] was inactive. In addition, the Activity in experiment [12] was 50%; in experiment [9], “Dose-dependent effect”; in experiment [10], “tde”; in experiment [13], 50%.
For `N#Cc1c(-c2ccccc2)cc(-c2cc(Cl)ccc2O)[nH]c1=O`, the result in experiment [4] and in experiment [8] was inactive. In addition, in experiment [6], the TIME was found to be 1.04 h.
